Publication PMC8765320, “Identification of a Proteasome-Targeting Arylsulfonamide with Potential for the Treatment of Chagas’ Disease” (Antimicrobial Agents and Chemotherapy, 2022)
Where two headings read alike, the source gives them in different places.

Key:
[1] = test system: T. cruzi amastigotes within Vero cells; assay: Drug sensitivity assay against T. cruzi-infected Vero cells (intracellular amastigotes); type: cell-based, Trypanosoma cruzi; details: for EC50: Trypanosoma cruzi, Vero
Experimental: The clonal Leishmania donovani cell line LdBOB (derived from MHOM/SD/62/1S-CL2D) was grown as either promastigotes or axenic amastigotes in media specific for each developmental stage, as previously described ([32]). T. cruzi epimastigotes from the Silvio strain (MHOM/BR/78/Silvio; clone X10/7A [33]) were grown at 28°C in RTH/FBS (RPMI 1640 medium supplemented with Trypticase, hemin, HEPES, and 10% heat-inactivated fetal calf serum (FCS) [Fisher Scientific]) ([34]). Bloodstream form T. brucei “single marker” S427 (T7RPOL TETR NEO) were cultured in the presence of G418 (15 μg ml^−1) at 37°C in HMI9-T media in the presence of 5% CO2. HepG2 cells (ECACC 85011430) were obtained from European Collection of Authenticated Cell Culture (ECACC). Cells were maintained in full growth medium (minimal essential medium [MEM] with GlutaMAX (Thermo Fisher), supplemented with 1% MEM nonessential amino acids (Sigma) and 10% heat-inactivated FBS and cultured at 37°C in the presence of 5% CO2. Cells were passaged twice weekly by detaching adherent cells with 0.05% trypsin/EDTA (Sigma) and diluted into fresh media. Cells were never grown beyond 80% confluence. Vero cells (African green monkey kidney cells; ECCAC 84113001) were maintained at 37°C, 5% CO2 in Dulbecco modified Eagle medium (DMEM; Lonza) supplemented with 10% FCS and subcultured every 2 days. T. cruzi metacyclic trypomastigotes were obtained from late-log-phase epimastigote cultures (initial inoculum, 10^6 ml^−1) after ca. 7 to 10 days at 28°C in RTH/FBS. Trypomastigote-rich cultures were incubated with Vero cells overnight at 37°C and 5% CO2 in DMEM/10% FCS. The following day, extracellular parasites were removed by washing the Vero cell monolayer three times. Infected monolayers were maintained at 37°C and in 5% CO2, DMEM/10% FCS was replaced every 48 h until the trypomastigotes reemerged from the Vero cells ([9]).
Drug sensitivity assays against T. cruzi-infected Vero cells were carried out as previously described ([37]); however, in this instance, assays were carried out in 96-well plates. Data were processed using GRAFIT (Erithacus software) and fitted to a two-parameter equation, as described above.

[2] = test system: L. donovani promastigotes; assay: L. donovani promastigote drug sensitivity assay; type: cell-based, Leishmania donovani; details: for EC50: Leishmania donovani
Experimental: (§1) L. donovani promastigote ([35]), axenic amastigote ([25]), and T. brucei bloodstream form ([36]) drug sensitivity assays were carried out as previously described. HepG2 monolayers were washed twice in PBS, detached with 0.05% trypsin/EDTA, and then diluted with fully supplemented MEM growth medium. Cells were pelleted at 80 × g for 5 min and resuspended in fully supplemented growth medium. Cells were seeded into 96-well plates (5 × 10^4/well) and allowed to adhere prior to exposure to test compounds. Plates were incubated at 37°C in the presence of 5% CO2 for 72 h. After incubation, resazurin (20 μl of a 2.5-mg/ml^−1 stock solution) was added to each well, followed by incubation for a further 2 h prior to fluorescence being read as described above.

[3] = test system: T. brucei BSF; assay: T. brucei bloodstream form drug sensitivity assay; type: cell-based; details: Trypanosoma brucei, weighted mean, n ≥ 3, read-out: Mean compound 1 EC50 ± SD
Experimental: as §1

[4] = test system: cytosolic T. cruzi malic enzyme (cTcME; C4B63_28g106); assay: Thermal proteome profiling, cTcME; type: binding, Trypanosoma cruzi; details: for ΔTm 1 / ΔTm 2: malic enzyme C4B63_28g106
Experimental: Aliquots of each lysate were then incubated at designated temperatures (33 to 69°C) and then, for each temperature, insoluble (denatured) proteins were removed. The resulting soluble protein samples were reduced, alkylated, and digested with trypsin prior to derivatization with tandem mass tags. Pooled peptides were fractionated by high-pressure liquid chromatography and analyzed by LC/MS-MS prior to identification and quantitation. The melting points of identified proteins were then established using the TPP software package. Full melt curves were established for 6,771 proteins, representing 39.4% coverage of the T. cruzi proteome.
T. cruzi (X10/7 strain) mid-log-phase epimastigotes (∼1 × 10^10) were harvested by centrifugation (1,912 × g, 15 min, 4°C) and washed with ice-cold PBS (1,912 × g, 5 min, 4°C); finally, the cell pellet was resuspended in 8 ml of ice-cold lysis buffer (1 mM EDTA, 1 mM dithiothreitol [DTT], 100 μM TLCK [Nα-p-tosyl-L-lysine chloromethyl ketone], and 1× Roche EDTA-free COmplete protease inhibitor cocktail in 50 mM potassium phosphate buffer [pH 7.4]). The cell suspension was submitted to three freeze-thaw cycles in a dry ice/ethanol bath to biologically inactivate the parasites and then submitted to cell disruption (Constant Systems, UK) at 30 kpsi. The resulting lysate was centrifuged (100,000 × g, 20 min, 4°C), the supernatant was collected, and the protein concentration was determined using a Bio-Rad protein assay.
Each 2-ml aliquot (drug and vehicle treated) was divided into 10 × 100-μl aliquots in 0.5-ml thin-walled PCR tubes, followed by incubation at a designated temperature (33, 37, 41, 45, 49, 53, 57, 61, 65, or 69°C) for 3 min, followed in turn by incubation at room temperature for 3 min before each sample was placed on ice. Each aliquot was centrifuged (100,000 × g, 20 min, 4°C), the supernatants were harvested, and the protein concentration was assessed.
All aspects of sample processing, peptide and protein identification and quantitation, and target identification were carried out as previously described ([15]). However, in this instance, proteins were identified by searching the MS and MS/MS data for the peptides against T. cruzi proteome Dm28c 2018 version 50 (https://tritrypdb.org/tritrypdb).

[5] = test system: L. donovani, T. cruzi, and T. brucei; assay: Phenotypic screening against three kinetoplastids; type: cell-based; details: range over all three kinetoplastids; read-out: EC50 values against the mammalian stages of these parasites

`COc1ccc(NS(=O)(=O)c2cc(-c3cc(C)n[nH]3)ccc2C)cc1OC` [Compound 1] showed an EC50 ([1]; T. cruzi Intra-Vero, weighted mean, n ≥ 3, read-out: Mean compound 1 EC50 ± SD) of 1300 ± 200 nM, an EC50 ([1]; in Vero cells, cell line ME OE, (*) one biological replicate, read-out: EC50 values) of 800 ± 70 nM and an EC50 ([1]; in Vero cells, cell line RES 1, read-out: EC50 values) of 10000 ± 5000 nM. It also gave an EC50 ([1]; in Vero cells, cell line RES 5, read-out: EC50 values) greater than 50000 nM, an EC50 ([1]; in Vero cells, cell line Wild-type, read-out: EC50 values) of 1000 ± 200 nM and an EC50 ([1]; in Vero cells, cell line β5 OE rescue R1, (*) one biological replicate, read-out: EC50 values) of 3000 ± 200 nM. The EC50 ([1]; in Vero cells, cell line β5 OE, read-out: EC50 values) was 1000 ± 200 nM, the EC50 ([1]; read-out: EC50 values, in Vero cells, cell line β4 F24L/I29M) was greater than 23000 nM and the EC50 ([1]; read-out: EC50 values, in Vero cells, cell line β5 D225N-OE, (*) one biological replicate) was 12000 ± 1400 nM. The “fold change versus WT” value ([1]; in Vero cells, cell line ME OE) was 1 fold, the “fold change versus WT” value ([1]; in Vero cells, cell line RES 1) was 8 fold and the “fold change versus WT” value ([1]; in Vero cells, cell line RES 5) was greater than 42 fold. For the same compound, the “fold change versus WT” value ([1]; in Vero cells, cell line Wild-type) was 1 fold, the “fold change versus WT” value ([1]; in Vero cells, cell line β4 F24L/I29M) was greater than 19 fold and the “fold change versus WT” value ([1]; in Vero cells, cell line β5 D225N-OE) was 10 fold. The “fold change versus WT” value ([1]; in Vero cells, cell line β5 OE) was 1 fold, the “fold change versus WT” value ([1]; in Vero cells, cell line β5 OE rescue R1) was 2 fold and the “fold change versus WT” value ([2]; L. donovani cell line cLdME OE) was “=”. For the same compound, the “fold change versus WT” value ([2]; L. donovani compound 2-resistant line (G197S in β5 subunit)) was 260 fold, the EC99 in promastigotes ([2]; L. donovani promastigotes) was 300 nM and the EC50 ([2]; read-out: Compound 1 EC50 values, L. donovani cell line Compound 2 RES III (G197S in β5 subunit)) was 26000 ± 4000 nM. The EC50 ([2]; L. donovani cell line Wild-type, read-out: Compound 1 EC50 values) was 100 ± 5 nM, the EC50 ([2]; L. donovani promastigote, weighted mean, n ≥ 3, read-out: Mean compound 1 EC50 ± SD) was 100 ± 5 nM and the EC50 [3] was 300 ± 13 nM. The “increase in thermal stability of cTcME (mean ΔTm)” value ([4]; experiment 1, lysate, compound at 10× EC50 (20 μM)) was 8.8 °C, the ΔTm 1 ([4]; biological replicate 1) was 8.6 °C and the ΔTm 2 ([4]; biological replicate 1) was 9.08 °C. It also gave a ΔTm 1 ([4]; biological replicate 2) of 5.6 °C, a ΔTm 2 ([4]; biological replicate 2) of 3.73 °C and an EC50 [5] of 0.1 to 8 µM.
